From patent US20240277729A1, “METHODS OF TREATMENT AND PHARMACEUTICAL COMPOSITIONS USING AN SGLT-2 INHIBITOR AND A NEUROLEPTIC AGENT” (Boehringer Ingelheim International GmbH, priority 2011, published 2024)
Entries after “also recorded” stand apart in the source; their conditions may differ.

Columns and labels:
Female Wistar rats = settings: neuroleptic alone; olanzapine 8 mg/kg sc, clozapine 8 mg/kg sc, haloperidol 4 mg/kg ip; oral glucose load 2 g/kg; FIG. 1A
Procedure: Female Wistar rats (weight range 250-300 g upon arrival) are obtained from Janvier (Le Genest Saint Isle-France, France) and housed in pairs or three together at a temperature of 21±4° C. and 55±20% humidity. The animals are maintained on a reverse phase light-dark cycle (lights off for 8 h from 09.30-17.30 h) during which time the room is illuminated by red light. The animals are housed and have free access to a fat diet and tap water until the night before the oral glucose tolerance test (OGTT) experiment.
An oral glucose tolerance test is performed in overnight fasted animals. A pre-dose blood sample (t0-90 min) is obtained by tail bleed. Blood glucose is measured with a glucometer, and the animals are randomized for blood glucose (n=8/group). Subsequently, the groups receive a single oral administration of either vehicle or a neuroleptic agent in the presence or absence of an SGLT-2 inhibitor. The animals receive an oral glucose load (2 g/kg) 60 min after compound administration. Blood glucose is measured in tail blood 15 min, 30 min, 60 min, 120 min, and 180 min after the glucose challenge. Glucose excursion is quantified by calculating the reactive glucose AUC. The data are presented as mean±SEM.

[1] = metformin on its own, in the diabetic; cited from earlier work

Row | Structure (SMILES) | glucose tolerance in OGTT (Female Wistar rats) | average improvement in the HbA1c value [1]
1 | O=C(CCCN1CCC(O)(c2ccc(Cl)cc2)CC1)c1ccc(F)cc1 [haloperidol, 4-[4-(4-chlorophenyl)-4-hydroxy-1-piperidyl]-1-(4-fluorophenyl)-butan-1-one] | impaired glucose tolerance; also recorded: worsening of the OGTT was less pronounced | 
2 | CN(C)C(=N)N=C(N)N [metformin] |  | 1.0-1.5%
3 | CN1CCN(C2=Nc3cc(Cl)ccc3Nc3ccccc32)CC1 [Clozapine, 8-chloro-11-(4-methylpiperazin-1-yl)-5H-dibenzo[b,e][1,4]diazepine] | impaired glucose tolerance | 
